Test results: publication PMC12845261, “Design, Synthesis, and Biological Evaluation of N-Acyl-Hydrazone-Linked Quinazolinone Derivatives with Antioxidant, Antimicrobial, and Anticancer Potential” (Pharmaceuticals, 2025)
Converted amounts (≈) assume the structure as drawn.

Key:
Assay type in all cases: cell-based
[1] = system: A431 (human epidermoid carcinoma); test: Cytotoxicity, MTT assay; conditions: for viability at 50 µM / IC50: Homo sapiens; for viability at 50 µM: A-431, 50 µM, compared to the control, read-out: Cell viability; for IC50: A-431, 24 h, tested range 3.125 to 50 µM
Protocol: For the cytotoxicity screening of the N-acyl-hydrazone derivatives, three cell lines were employed: HT-29 (human colorectal adenocarcinoma), A431 (human epidermoid carcinoma), and VERO (non-tumoral African green monkey kidney epithelial cells). All cell lines were obtained from the American Type Culture Collection (ATCC, Manassas, VA, USA), and maintained in appropriate culture media as follows: HT-29 and A431 cells were cultured in Dulbecco’s Modified Eagle Medium (DMEM), while VERO cells were cultured in Minimum Essential Medium (MEM). Both culture media were supplemented with 10% fetal bovine serum (FBS) and 1% penicillin-streptomycin mix, to formulate the complete culture medium. All cell lines were incubated at 37 °C in a humidified atmosphere containing 5% CO2. […] For the cytotoxicity screening, cells were seeded into sterile 96-well plates at an initial density of 1 × 10^4 cells/well and allowed to adhere for 24 h. Subsequently, cells were treated with increasing concentrations (3.125 to 50 µM) of compounds 1a–1f and 2 for 24 h. In parallel, 5-fluorouracil (5-FU, Sigma Aldrich, St. Louis, MO, USA) was included as a reference drug and tested over the same concentration range under identical experimental conditions. […] For the experimental control, culture medium was refreshed at the time of treatment application. […] Louis, MO, USA). Briefly, the culture media were discarded from each well and replaced with a fresh solution of MTT (1 mg/mL). Plates were incubated for 4 h at 37 °C, and the resulting formazan crystals were solubilized with isopropanol. The absorbance was measured at 550 nm using the FlexStation III multimodal reader (Molecular Devices, San Jose, CA, USA). All experiments were performed in triplicate and repeated in three independent assays. Cell viability was calculated as a percentage relative to the untreated control using the formula Cell Viability (%) = (Abs treated/Abs control) × 100. Data were processed using GraphPad Prism 6.0 and presented as mean ± standard deviation (SD). Statistical analysis was performed using one-way analysis of variance (ANOVA) followed by Dunnett’s post hoc test for comparison with the untreated control group.

[2] = system: P. aeruginosa ATCC 27853; test: Quantitative antimicrobial activity, serial binary microdilution (MIC, IC50); conditions: Pseudomonas aeruginosa, ATCC27853, 24 h, 37 °C, DMSO control 1.25
Protocol: (§1) For the evaluation of antimicrobial activity, the following reference strains were used: S. aureus ATCC 25923, E. faecalis ATCC 29212, E. coli ATCC 25922, P. aeruginosa ATCC 27853 and C. albicans ATCC 10231.
(§2) Quantitative analysis was performed using the method of serial binary microdilutions in liquid medium (Tryptone Soy Broth for bacteria and Sabouraud Broth for yeasts) in plates with 96 wells. Stock solutions of 10 mg/mL were made in DMSO, and the range of concentrations tested for each compound was 5000–0.16 μg/mL. Simultaneously, the DMSO control was carried out under the same working conditions. Each well was inoculated with 10 μL of microbial suspension, adjusted to a density of 1.5 × 10^8 CFU/mL prepared from 18 to 24 h cultures. After 24 h of incubation at 37 °C, microbial growth and multiplication were evaluated both macroscopically and spectrophotometrically at 620 nm to establish the MIC values. […] Blanks were made for each sample concentration, and the formula was applied: Microbial viability(%)=Asample−Ablank/Astrain control−Asterility control·100

[3] = system: E. coli ATCC 25922; test: as above; conditions: for MIC: Escherichia coli, ATCC25922, E. coli ATCC 25922, 24 h, 37 °C, DMSO control 1.25
Protocol: as §1, §2

[4] = system: S. aureus ATCC 25923; test: as above; conditions: 24 h; for MIC (mg/mL) / MIC: S. aureus ATCC 25923, 37 °C, DMSO control 2.5
Protocol: as §1, §2

[5] = system: E. faecalis ATCC 29212; test: as above; conditions: 37 °C, DMSO control 2.5; for MIC: Enterococcus faecalis, ATCC29212, 24 h
Protocol: as §1, §2

[6] = system: C. albicans ATCC 10231; test: as above; conditions: Candida albicans, ATCC10231, 24 h, 37 °C, DMSO control 1.25
Protocol: as §1, §2

[7] = system: P. aeruginosa ATCC 27853; test: Microbial adhesion, crystal violet (MICMA); conditions: DMSO control 1.25
Protocol: as §1
(§3) Following quantitative analysis of antimicrobial activity, microbial adhesion was evaluated after methanol fixation and violet crystal staining (0.1%). The absorbance of the adhered biomass colored with violet crystal and resuspended in 33% acetic acid was measured at 490 nm.

[8] = system: E. coli ATCC 25922; test: Microbial adhesion, crystal violet (MICMA); conditions: DMSO control 5
Protocol: as §1, §3

[9] = system: S. aureus ATCC 25923; test: Microbial adhesion, crystal violet (MICMA); conditions: DMSO control 5
Protocol: as §1, §3

[10] = system: E. faecalis ATCC 29212; test: Microbial adhesion, crystal violet (MICMA); conditions: DMSO control 2.5
Protocol: as §1, §3

[11] = system: C. albicans ATCC 10231; test: Microbial adhesion, crystal violet (MICMA); conditions: DMSO control 1.25
Protocol: as §1, §3

[12] = system: P. aeruginosa ATCC 27853; test: Qualitative antimicrobial activity, adapted Kirby-Bauer (inhibition zone); conditions: 10 μL of 10 mg/mL DMSO stock, mean ± SD
Protocol: (§4) For the evaluation of antimicrobial activity, the following reference strains were used: S. aureus ATCC 25923, E. faecalis ATCC 29212, E. coli ATCC 25922, P. aeruginosa ATCC 27853 and C. albicans ATCC 10231. The microbial suspensions were prepared at a density of 1.5 × 10^8 CFU/mL, corresponding to the McFarland 0.5 nephelometric standard. These suspensions were obtained from 18–24 h cultures developed on solid media (Mueller-Hinton for bacteria, Sabouraud for yeast). Antimicrobial activity was assessed using an adapted Kirby-Bauer method according to CLSI (Clinical and Laboratory Standards Institute). In addition to the 10 mg/mL stock solutions prepared in DMSO for each compound, a solvent control was used. Each stock solution (10 μL) was distributed in spot on the medium inoculated with the interest strain. After measuring the diameter of the inhibition zone (IZD) around the spot (mm), the results were expressed as the mean ± standard deviation (SD) for each compound tested in duplicate.

[13] = system: E. coli ATCC 25922; test: as above; conditions: 10 μL of 10 mg/mL DMSO stock, mean ± SD
Protocol: as §4

[14] = system: S. aureus ATCC 25923; test: as above; conditions: 10 μL of 10 mg/mL DMSO stock, mean ± SD
Protocol: as §4

[15] = system: E. faecalis ATCC 29212; test: as above; conditions: 10 μL of 10 mg/mL DMSO stock, mean ± SD
Protocol: as §4

[16] = system: C. albicans ATCC 10231; test: as above; conditions: 10 μL of 10 mg/mL DMSO stock, mean ± SD
Protocol: as §4

[17] = Staphylococcus aureus, ATCC25923

Compound | viability at 50 µM ([1]; 24 h) [%] | MIC [2] [µg/mL] | MIC [3] [µg/mL] | MIC (mg/mL) [4] | MIC [4, 17] [µg/mL] | MIC [5] [µg/mL] | MIC [6] [µg/mL] | MICMA [7] [mg/mL] | MICMA [8] [mg/mL] | MICMA [9] [mg/mL] | MICMA [10] [mg/mL] | MICMA [11] [mg/mL] | IZD (mm) [12] [mm] | IZD (mm) [13] [mm] | IZD (mm) [14] [mm] | IZD (mm) [15] [mm] | IZD (mm) [16] [mm] | IC50 [1] [µM] | other results
Cc1nc2ccccc2c(=O)n1CC(=O)N/N=C/c1cc(Br)ccc1O [Compound 1a, N′-[(E)-(5-bromo-2-hydroxyphenyl)methylidene]-2-(2-methyl-4-oxoquinazolin-3(4H)-yl)acetohydrazide] | ~60 | 1250 (≈ 3.01 mM) | 1250 (≈ 3.01 mM) | specifically active | 1250 (≈ 3.01 mM) | 1250 (≈ 3.01 mM) | 625 (≈ 1.51 mM) | 0.625 | 1.25 | 2.5 | 1.25 | 0.625 | 0.00 ± 0.00 | 0.00 ± 0.00 | 0.00 ± 0.00 | 0.00 ± 0.00 | 0.00 ± 0.00 |  | MIC (mg/mL) ([5]; 24 h): specifically active
Cc1nc2ccccc2c(=O)n1CC(=O)N/N=C/c1cc(Br)cc(Br)c1O [Compound 1b, N′-[(E)-(3,5-bromo-2-hydroxyphenyl)methylidene]-2-(2-methyl-4-oxoquinazolin-3(4H)-yl)acetohydrazide] | ~50 | 5000 (≈ 10.1 mM) | 1250 (≈ 2.53 mM) | specifically active | 312 (≈ 0.632 mM) | > 5000 | 625 (≈ 1.26 mM) | 1.25 | 2.5 | 1.25 | 5 | 5 | 0.00 ± 0.00 | 0.00 ± 0.00 | 12.33 ± 0.58 | 0.00 ± 0.00 | 0.00 ± 0.00 | ~50 | IC50 ([4]; Staphylococcus aureus, ATCC25923, S. aureus, four-parameter fit of microbial viability): 85.7 µg/mL (≈ 0.173 mM)
COc1cccc(/C=N/NC(=O)Cn2c(C)nc3ccccc3c2=O)c1O [Compound 1c, N′-[(E)-(2-hydroxy-3-methoxyphenyl)methylidene]-2-(2-methyl-4-oxoquinazolin-3(4H)-yl)acetohydrazide] | ~50 | 1250 (≈ 3.41 mM) | 1250 (≈ 3.41 mM) |  | 2500 (≈ 6.82 mM) | 2500 (≈ 6.82 mM) | 2500 (≈ 6.82 mM) | 1.25 | 2.5 | 2.5 | 2.5 | 0.625 | 0.00 ± 0.00 | 0.00 ± 0.00 | 7.67 ± 0.58 | 7.67 ± 0.58 | 6.67 ± 0.58 | ~50 | IC50 (antimicrobial activity) compared with solvent control ([3]; E. coli, versus DMSO, p < 0.05): significantly lower IC50 values than the solvent control
COc1ccc(/C=N/NC(=O)Cn2c(C)nc3ccccc3c2=O)c(O)c1 [Compound 1d, N′-[(E)-(2-hydroxy-4-methoxyphenyl)methylidene]-2-(2-methyl-4-oxoquinazolin-3(4H)-yl)acetohydrazide] |  | 1250 (≈ 3.41 mM) | 1250 (≈ 3.41 mM) |  | 2500 (≈ 6.82 mM) | 5000 (≈ 13.6 mM) | 5000 (≈ 13.6 mM) | 1.25 | 2.5 | 2.5 | 5 | 1.25 | 0.00 ± 0.00 | 0.00 ± 0.00 | 0.00 ± 0.00 | 0.00 ± 0.00 | 0.00 ± 0.00 |  | Cell viability ([1]; at 50 µM and 25 µM, 24 h): below 60%
Cc1nc2ccccc2c(=O)n1CC(=O)NN [Compound 2, 2-(2-methyl-4-oxoquinazolin-3(4H)-yl)acetohydrazide] |  | 1250 (≈ 5.38 mM) | 1250 (≈ 5.38 mM) |  | 2500 (≈ 10.8 mM) | 2500 (≈ 10.8 mM) | 1250 (≈ 5.38 mM) |  | 1.25 | 2.5 | >5 |  | 0.00 ± 0.00 | 0.00 ± 0.00 | 0.00 ± 0.00 | 0.00 ± 0.00 | 6.33 ± 1.53 |  | Cytotoxic effect (in words) ([1]; 3.125 to 50 µM, 24 h): no cytotoxic activity
